Data: patent US6344211B1, “Transdermal absorption of active substances from subcooled melts” (LTS Lohmann Therapie-Systeme GmbH, priority 1994, dated 2002)
Like-named read-outs stand apart in the source and are kept apart here. Marks after values point to notes of the source that are not given here.

Legend:
[1] = cited from earlier work
[2] = dissociation constant (pKa) of the acids used; format: physicochemical; conditions: determined by experiment
Experimental: Column 1 indicates the number of the experiment, column 2 the concentration of buprenorphine base, column 3 the quality and quantity of the acid used, column 4 the dissociation constant of the acids used, column 5 the plasticizer, column 6 the polymers used, and column 7 the absorption rate under in-vitro-conditions. The relative amount of buprenorphine base diffusing through mice skin within 24 h, relative to the amount per TTS, is given. The penetration results were obtained using mice skin clamped in a Franz-Cell.
It is seen from column 4 that the dissociation constants of the carboxylic acids used are quite similar. However, if the plasticizer, oleyl oleate, is used in a 10%-concentration each time, it can be seen from Examples 1 and 3 or 2 and 4 that only the carboxylic acids having a tendency to form subcooled melts cause a marked penetration increase under in-vitro conditions. […] This was compensated by a higher concentration of the two weaker acids, amounting to 15%, as compared to the concentration of the two stronger acids. However, it can also be seen that the dissociation constants are so similar that the absorption-promoting effect cannot be explained by the dissociation constants.

For `O=C(O)CCCC(=O)O` [glutaric acid], the pKa value ([1]; pKa I of glutaric acid, given for the glutaric acid monomethyl ester line) is listed as 4.33*.
In the case of `CC(=O)CCC(=O)O` [levulic acid], the pKa value [2] is reported as 4.4**.
For `C=CCCCCCCCCC(=O)O` [undecenoic acid], the pKa value ([1]; dissociation constant of the acid used in the TTS) is given as 4.5.
